From ChEMBL document CHEMBL5230122, “Natural products and other inhibitors of F1FO ATP synthase” (Eur J Med Chem, 2020)
Square brackets hold non-standard residues; d marks the D form. Peptide text beside a SMILES is read from it. * marks the point of attachment. X4 = CC(C)C[C@@H](C[N+]1=C2CCCN2CCC1)N*; Pip = O=C(O)[C@@H]1CCCCN1; Iva = CC[C@](C)(N)C(=O)O; Aib = CC(C)(N)C(=O)O; βAla = NCCC(=O)O

Legend:
[1] = system: NCI-H292; assay: Anticancer activity against human NCI-H292 cells assessed as reduction in cell proliferation incubated for 48 hrs by Calcein AM and Pluronic F-127 staining based fluorescence plate reader analysis; type: functional; conditions: NCI-H292, 48 h
[2] = system: P388; assay: Anticancer activity against mouse P388 cells assessed as reduction in cell viability incubated for 96 hrs by MTT assay; type: functional, cell-based; conditions: P388, 96 h
[3] = organism: Bos taurus; assay: Inhibition of bovine F0F1-ATPase at 50 uM
[4] = system: GBM; assay: Anticancer activity against human GBM cells carrying high-throughput GBM sphere assessed as reduction in cell viability incubated for 96 hrs by Cell-Titer-Glo assay; type: functional, cell-based
[5] = Antiproliferative activity against human Keratinocyte assessed as inhibition of cell proliferation incubated for 2 days by Beckman Coulter analysis; type: functional, cell-based; conditions: 48 h
[6] = system: SNU-398; assay: Anticancer activity against human SNU-398 cells expressing high level of SALL4 assessed as reduction in cell viability incubated for 72 hrs by CellTiter-Glo assay; type: functional, cell-based; conditions: SNU-398, 72 h
[7] = system: NCI-H292; assay: Antiproliferative activity against human NCI-H292 cells assessed as reduction in cell viability by MTT assay; type: functional, cell-based
[8] = system: HeLa; assay: Antiproliferative activity against human HeLa cells assessed as reduction in cell viability by MTT assay; type: functional, cell-based
[9] = system: HCT-116; assay: Antiproliferative activity against human HCT-116 cells assessed as reduction in cell viability incubated for 72 hrs by MTT assay; type: functional, cell-based; conditions: HCT-116, 72 h
[10] = Antiproliferative activity against human U87G cells assessed as reduction in cell viability incubated for 72 hrs by MTT assay; type: functional, cell-based
[11] = system: HL-60; assay: Anticancer activity against human HL-60 cells assessed as reduction in cell viability incubated for 72 hrs by CCK-8 assay; type: functional, cell-based; conditions: HL-60, 72 h
[12] = system: MCF7; assay: Anticancer activity against human MCF7 cells assessed as reduction in cell viability incubated for 72 hrs by CCK-8 assay; type: functional, cell-based; conditions: MCF7, 72 h
[13] = system: NCI-H1299; assay: Anticancer activity against human NCI-H1299 cells assessed as reduction in cell viability incubated for 72 hrs by CCK-8 assay; type: functional, cell-based; conditions: NCI-H1299, 72 h
[14] = system: LoVo; assay: Anticancer activity against human LoVo cells assessed as reduction in cell viability incubated for 72 hrs by CCK-8 assay; type: functional, cell-based
[15] = system: MCF7; assay: Antitumor activity against human MCF7 cells assessed as reduction in cell viability incubated for 24 hrs by MTT assay; type: functional, cell-based; conditions: MCF7, 24 h

COC[C@H](O)C[C@H]1O[C@@](O)(C[C@@H]2C[C@H](OC)CCC/C=C(C)/C=C/[C@@H](O[C@@H]3O[C@@H](C)[C@@H](OC)[C@@H](O)[C@@H]3O)[C@H](C)/C=C(C)/C=C(C)/C=C(\C)C(=O)O2)[C@H](C)[C@@H](O)[C@H]1C
IC50 [1]: > 1000 nM

CC/C(C)=C(\NC(=O)[C@@H](NC(=O)CC(=O)[C@@H](C)CC(C)C)[C@](C)(O)CC)C(=O)NCC(=O)N/C(C(=O)N[C@@H](C(=O)N[C@@H](C(=O)N[C@@H](C(=O)N[C@H](C(=O)N/C(C(=O)N[C@H](C)C(=O)N[C@@H](C(=O)N[C@H](C(=O)NC(C(=O)N[C@H](CN(C)C)C(C)C)=C(C)C)C(C)C)C(C)C)=C(\C)CC)C(C)(C)O)C(C)(C)O)[C@@H](C)CC)C(C)C)=C(\C)CC
IC50 [2]: 0.88 nM

COc1cc(/C=C/c2ccc(OCCCC[P+](c3ccccc3)(c3ccccc3)c3ccccc3)cc2)cc(OC)c1
inhibition [3]: > 40%

CCc1n(CC(=O)O[C@@H]2C[C@H](C)CC[C@H]2C(C)C)c2ccccc2[n+]1C
IC50 [4]: 150 nM

CN1C(=O)C(Cc2ccccc2-c2ccccc2)N=C(c2ccc(O)cc2)c2cc(Cl)ccc21 (configuration not stated)
EC50 [5]: 2200 nM

CN1C(=O)C(Cc2ccc3ccccc3c2)N=C(c2ccc(O)cc2)c2cc(Cl)ccc21 (configuration not stated)
EC50 [5]: 3100 nM

CC[C@](C)(NC(=O)[C@H](CC(C)C)NC(=O)[C@H](C)NC(=O)C(C)(C)NC(=O)[C@@H]1CCCCN1C(=O)C(C)(C)NC(=O)C(C)(C)NC(=O)CNC(=O)CCNC(=O)[C@H](CC(C)C)NC(=O)C(C)(C)NC(=O)[C@](C)(CC)NC(=O)[C@@H]1CCCCN1C(=O)C(C)(C)NC(=O)[C@@H]1CCCCN1C(C)=O)C(=O)N[C@@H](CC(C)C)C[N+]1=C2CCCN2CCC1 [EFRAPEPTIN G] (Ac-[Pip][Aib][Pip][Iva][Aib]L[βAla]G[Aib][Aib][Pip][Aib]AL[Iva]-X4)
IC50 [6]: 9 nM

COC[C@@H](C[C@H]1O[C@@](O)([C@H](O)[C@@H]2C[C@H](OC)[C@@H](O)CC/C=C(C)/C=C/[C@@H](O[C@@H]3O[C@@H](C)[C@H](OC)[C@@H](OC(=O)CCC(=O)O)[C@@H]3O)[C@H](C)/C=C(C)/C=C(C)/C=C(\C)C(=O)O2)[C@H](C)[C@@H](O)[C@H]1C)O[C@H]1C[C@](C)(O)[C@@H](O[C@H]2C[C@@H](OC)[C@H](O)[C@@H](C)O2)[C@H](C)O1
IC50 [7]: 82 nM | IC50 [8]: 260 nM

COC[C@@H](C[C@H]1O[C@@](O)([C@H](O)[C@@H]2C[C@H](OC)CCC/C=C(C)/C=C/[C@@H](O[C@@H]3O[C@@H](C)[C@H](OC)[C@@H](O)[C@@H]3O)[C@H](C)/C=C(C)/C=C(C)/C=C(\C)C(=O)O2)[C@H](C)[C@@H](O)[C@H]1C)O[C@H]1C[C@](C)(O)[C@@H](O[C@H]2C[C@@H](OC)[C@H](O)[C@@H](C)O2)[C@H](C)O1
IC50 [1]: 7 nM

CC(=O)Oc1cc(/C=C/c2ccc(OCCCC[P+](c3ccccc3)(c3ccccc3)c3ccccc3)cc2)cc(OC(C)=O)c1
inhibition [3]: > 40%

CO[C@H]1[C@H](O[C@@H]2C[C@@H]3C[C@H](O)[C@]4(O)C(=O)O[C@@H](C[C@H](O)[C@@H]5C[C@H](C)[C@H](/C=C\C=C\[C@H](C)C[C@H](C2)O3)O5)[C@H]4O)O[C@@H](C)[C@H](OCCCC=O)[C@H]1OCCCC=O
IC50 [9]: > 3000 nM | IC50 [10]: > 3000 nM

COc1ccc(/C=C/c2cc(OC)cc(OCCCC[P+](c3ccccc3)(c3ccccc3)c3ccccc3)c2)cc1
inhibition [3]: > 40%

CC[C@H](C)[C@H](NC(=S)[C@H](C)NC(=O)[C@H](C)NC(=S)[C@H](CCSC)NC(=S)[C@@H](NC(=O)C(C)=O)C(C)C)C(=S)N[C@@H](C)C(=O)N[C@H]1C(=O)N[C@@H](C(C)C)C(=O)N[C@@H](C)C(=O)N[C@@H](Cc2ccc(OC)cc2)C(=O)N[C@@H](C(O)c2cn(C)c[n+]2C)C(=O)N/C=C\SC1C (some centres not stated)
IC50 [11]: 610 nM | IC50 [12]: 4980 nM | IC50 [13]: 5080 nM | IC50 [14]: 1830 nM

O=C(Oc1cc(/C=C/c2ccc(O)cc2)cc(OC(=O)c2ccco2)c1)c1ccco1
IC50 [15]: 42700 nM

COC[C@@H](C[C@H]1O[C@@](O)([C@H](O)[C@@H]2C[C@H](OC)[C@@H](O)CC/C=C(C)/C=C/[C@@H](O[C@@H]3O[C@@H](C)[C@H](OC)[C@@H](O)[C@@H]3OC(=O)CCC(=O)O)[C@H](C)/C=C(C)/C=C(C)/C=C(\C)C(=O)O2)[C@H](C)[C@@H](O)[C@H]1C)O[C@H]1C[C@](C)(O)[C@@H](O[C@H]2C[C@@H](OC)[C@H](O)[C@@H](C)O2)[C@H](C)O1
IC50 [7]: 91 nM | IC50 [8]: 240 nM

CN1C(=O)C(Cc2ccc3ccccc3c2)N=C(c2ccc3[nH]c(=O)[nH]c3c2)c2cc(Cl)ccc21 (configuration not stated)
EC50 [5]: 2100 nM
